According to ChEMBL document CHEMBL5579878, “Allosteric Activation of Protein Phosphatase 5 with Small Molecules” (J Med Chem, 2024):
Changes are numbered by the printed parent chain. The source made the active and inactive calls. No cut-off for these calls is given here.

Experiments:
[1] = target: T1, Serine/threonine-protein phosphatase 5 (Homo sapiens, UniProt P53041); test: Binding affinity to His-tagged human PP5 phosphatase domain extracted from Escherichia coli BL21 assessed as dissociation constant by ITC analysis
T1 sequence (P53041 whole entry): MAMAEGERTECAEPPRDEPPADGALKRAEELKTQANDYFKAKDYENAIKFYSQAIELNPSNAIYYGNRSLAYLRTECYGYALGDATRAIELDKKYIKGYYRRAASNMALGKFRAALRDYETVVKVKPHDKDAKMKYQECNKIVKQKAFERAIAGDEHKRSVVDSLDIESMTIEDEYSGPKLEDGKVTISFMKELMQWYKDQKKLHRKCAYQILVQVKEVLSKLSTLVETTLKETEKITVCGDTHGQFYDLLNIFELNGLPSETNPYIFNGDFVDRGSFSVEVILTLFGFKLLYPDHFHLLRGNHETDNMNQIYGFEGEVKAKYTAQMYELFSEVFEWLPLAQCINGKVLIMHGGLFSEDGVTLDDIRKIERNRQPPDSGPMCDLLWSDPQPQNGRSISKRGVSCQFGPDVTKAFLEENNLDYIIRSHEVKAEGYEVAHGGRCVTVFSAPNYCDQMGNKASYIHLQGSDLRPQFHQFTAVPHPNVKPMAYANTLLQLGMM

[2] = target: Serine/threonine-protein phosphatase PP1-alpha catalytic subunit (Homo sapiens) (UniProt P62136); test: Inhibition of PP1A (unknown origin) using DiFMUP as substrate at 0.01 to 1000 uM; settings: dose 0.01-1000 µM
[3] = target: T2, Tyrosine-protein phosphatase non-receptor type 2 (Homo sapiens) (UniProt P17706); test: Inhibition of PTPN2 (unknown origin) using DiFMUP as substrate at 0.01 to 1000 uM; settings: dose 0.01-1000 µM
T2 sequence (whole entry): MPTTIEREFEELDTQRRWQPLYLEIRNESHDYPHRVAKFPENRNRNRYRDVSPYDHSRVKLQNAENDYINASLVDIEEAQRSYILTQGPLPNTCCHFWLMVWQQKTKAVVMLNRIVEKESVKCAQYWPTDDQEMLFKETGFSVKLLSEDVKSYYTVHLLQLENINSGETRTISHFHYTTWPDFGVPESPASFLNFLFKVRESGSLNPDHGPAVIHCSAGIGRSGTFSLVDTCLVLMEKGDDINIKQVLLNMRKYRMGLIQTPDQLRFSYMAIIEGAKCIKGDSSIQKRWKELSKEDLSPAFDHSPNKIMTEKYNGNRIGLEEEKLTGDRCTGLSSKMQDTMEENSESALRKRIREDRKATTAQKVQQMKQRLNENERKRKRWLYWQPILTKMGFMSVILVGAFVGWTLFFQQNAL

[4] = target: T3, Tyrosine-protein phosphatase non-receptor type 11 (Homo sapiens) (UniProt Q06124); test: Inhibition of SHP2 (unknown origin) using DiFMUP as substrate at 0.01 to 1000 uM; settings: dose 0.01-1000 µM
T3 sequence (whole entry): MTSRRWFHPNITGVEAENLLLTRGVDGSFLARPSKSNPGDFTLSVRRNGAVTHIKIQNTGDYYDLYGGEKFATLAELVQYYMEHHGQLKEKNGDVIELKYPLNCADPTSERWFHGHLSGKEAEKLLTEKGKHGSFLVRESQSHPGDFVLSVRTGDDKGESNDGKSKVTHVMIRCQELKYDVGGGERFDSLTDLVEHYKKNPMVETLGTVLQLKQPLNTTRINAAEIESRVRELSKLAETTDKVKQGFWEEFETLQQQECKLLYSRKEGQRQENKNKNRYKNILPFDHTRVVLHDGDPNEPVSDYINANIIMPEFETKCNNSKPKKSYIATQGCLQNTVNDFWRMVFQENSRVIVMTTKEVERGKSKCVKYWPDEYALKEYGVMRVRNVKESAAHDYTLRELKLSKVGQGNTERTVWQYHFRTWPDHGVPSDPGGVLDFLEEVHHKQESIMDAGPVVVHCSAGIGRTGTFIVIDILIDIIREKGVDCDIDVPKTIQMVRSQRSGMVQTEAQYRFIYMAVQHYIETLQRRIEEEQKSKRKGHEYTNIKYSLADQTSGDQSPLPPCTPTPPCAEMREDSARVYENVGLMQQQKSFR

[5] = target: Serine/threonine-protein phosphatase 5 (Homo sapiens, UniProt P53041, K430A); test: Binding affinity to PP5 K430A mutant (unknown origin) assessed as dissociation constant by ITC analysis
[6] = test system: T4, Serine/threonine-protein phosphatase 5 (Homo sapiens), P53041 [E428A]; test: Activation of PP5 E428A mutant (unknown origin) using pNPP as substrate assessed as increase in phosphatase activity at 10 to 200 uM incubated for 30 mins by spectrophotometric analysis; settings: dose 10-200 µM
T4 sequence (whole entry): T1 sequence (P53041 whole entry) with E428A

[7] = target: T5, Serine/threonine-protein phosphatase 5 (Homo sapiens) (UniProt P53041); test: Induction of thermal stabilization of PP5 in human HCT-116 cells assessed as increase in melting temperature at 100 uM incubated for 12 hrs at 37 to 58 degreeC by CETSA; format: cell-based
T5 sequence (whole entry): T1 sequence (P53041 whole entry)

[8] = target: T5, Serine/threonine-protein phosphatase 5 (Homo sapiens); test: Activation of PP5 in human HCT-116 cells assessed as decrease in intracellular S13 residue phosphorylated CDC37 level incubated for 24 hrs by Western blot analysis; format: cell-based; settings: filed as activator, dose <= 100.0 µM
[9] = test system: HCT-116; test: Effect on HSP27 expression level in human HCT-116 cells at 1 to 100 uM incubated for 24 hrs by Western blot analysis; format: functional, cell-based; settings: dose 1-100 µM
[10] = test system: HCT-116; test: Effect on HSP40 expression level in human HCT-116 cells at 1 to 100 uM incubated for 24 hrs by Western blot analysis; format: functional, cell-based; settings: dose 1-100 µM
[11] = Toxicity in BALB/c nude mouse xenografted with human HCT-116 cells assessed as body weight loss at 60 mg/kg, ip administered every other day for 14 days; format: organism-based; settings: in vivo, 336 h, time 14 day
[12] = test system: HCT-116; test: Antitumor activity against human HCT-116 cells xenografted in BALB/c nude mouse assessed as decrease in AT13387-induced HSP40 protein expression in tumor at 30 to 60 mg/kg, ip administered every other day for 14 days by Western blot analysis; format: functional, organism-based; settings: dose 30-60 mg/kg, time 14.0 day

Sequence of Serine/threonine-protein phosphatase 5 (Homo sapiens, UniProt P53041, K430A) (P53041 2-499 K430A limits assumed): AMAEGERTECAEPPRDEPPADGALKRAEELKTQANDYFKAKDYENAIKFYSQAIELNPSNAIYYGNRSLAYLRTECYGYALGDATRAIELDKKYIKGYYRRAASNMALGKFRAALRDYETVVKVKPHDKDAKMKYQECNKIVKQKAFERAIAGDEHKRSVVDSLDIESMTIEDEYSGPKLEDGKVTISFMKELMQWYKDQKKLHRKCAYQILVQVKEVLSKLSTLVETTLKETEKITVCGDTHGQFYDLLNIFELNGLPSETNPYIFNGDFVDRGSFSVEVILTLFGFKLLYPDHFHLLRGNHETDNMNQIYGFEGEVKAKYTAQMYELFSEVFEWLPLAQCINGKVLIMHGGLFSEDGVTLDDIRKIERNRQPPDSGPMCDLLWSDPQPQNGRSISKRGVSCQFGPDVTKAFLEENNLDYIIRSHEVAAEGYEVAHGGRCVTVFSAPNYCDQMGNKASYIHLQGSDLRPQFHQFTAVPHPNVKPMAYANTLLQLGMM
Sequence of Serine/threonine-protein phosphatase PP1-alpha catalytic subunit (Homo sapiens) (P62136 whole entry): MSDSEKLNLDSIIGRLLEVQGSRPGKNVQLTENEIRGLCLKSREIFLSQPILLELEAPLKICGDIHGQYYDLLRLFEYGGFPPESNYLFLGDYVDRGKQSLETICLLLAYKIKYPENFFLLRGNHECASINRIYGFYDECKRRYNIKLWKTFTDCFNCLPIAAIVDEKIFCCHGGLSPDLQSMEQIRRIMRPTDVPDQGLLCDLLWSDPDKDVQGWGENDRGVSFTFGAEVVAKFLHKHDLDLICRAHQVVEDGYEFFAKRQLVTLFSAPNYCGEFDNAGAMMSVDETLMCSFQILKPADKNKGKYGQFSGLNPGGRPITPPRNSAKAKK

In the case of `N=c1oc2cc(F)cc(F)c2cc1C(N)=S`, the Kd [1] is reported as 0.811 µM, the inhibition [2] is reported as “inactive” and the inhibition [3] is reported as “inactive”. The inhibition [4] was “inactive”, the Kd [5] was 37.2 µM and the Activity [6] was “inactive”. The ΔTm [7] was 1.48 °C, the Activity [8] was “Dose-Dependent Effect” and the Activity [9] was “inactive”. For the same molecule, the Activity [10] was “inactive”, the Activity [11] was “Non-Toxic” and the Activity [12] was “Active”.
